Measurements from patent US20240228469A1, “PCSK9 INHIBITORS AND METHODS OF USE THEREOF” (AstraZeneca AB, priority 2022, published 2024).

Assays:
PCSK9 = PCSK9 (Homo sapiens, UniProt Q8NBP7); experiment: Assay 2 Biophysical human PCSK9 assay (SPR, Biacore); format: binding; set-up: biotinylated human PCSK9 (31-692)-Avi-His6; His6 (C); details: single-cycle kinetics, 30° C., geometric mean, read-out: Assay 2 (PCSK9 BIAcore DBA Cr) GMean Kd
Protocol: The SPR binding experiments were performed on a Biacore S200 optical biosensor unit at 30° C. A Series S Sensor Chip SA that is designed to bind biotinylated molecules for interaction analysis in Biacore systems was equilibrated at room temperature prior to use. The running buffer for protein tethering and subsequent ligand binding experiments was 10 mM HEPES pH 7.4, 150 mM NaCl, 0.05% (v/v) Tween 20 pH 7.4.
For the surface tethering of PCSK9, biotinylated human PCSK9 (31-692)-Avi-His6 at a concentration of 0.5 mg/mL was used. Prior to the surface tethering, the surface was exposed to a solution of 50 mM NaOH, 500 mM NaCl via 3 consecutive injections of this solution with a contact time of 60 s and a flowrate of 10 μL min^−1 to remove non-conjugated streptavidin. The PCSK9 protein was diluted to a concentration of 20 μg/mL using running buffer and injected with a contact time of 180-300 s and a flowrate of 10 μL min^−1 over a single flow channel (typically flow channel 2 or flow channel 4) with the aim to achieve protein capture levels of >5000 response units (RU). Remaining biotin binding sites were blocked via 2 consecutive injections of a 10 μM D-biotin solution in running buffer with a contact time of 60 s and a flowrate of 10 μL min^−1 over all flow-channels. Flow-channels 1 and 3 typically served as a reference surface throughout the subsequent binding experiments.
The binding experiments were all performed at a flow rate of 30 PL min^−1 and by employing the method of single-cycle kinetics. This approach involves the sequential injection of a compound concentration series without regeneration steps. A contact time between 90-150 s was selected, which was followed by a 40 min dissociation phase to allow for a proper estimation of the dissociation rate constant. Test compounds were delivered in DMSO at a concentration of 10 mM and a digital dispenser HP D300 was used to set up the compound concentration series using 6 concentrations. The tested concentrations have been 30, 100, 300, 1000, 3000 and 10000 nM. Prior to injecting any compound, the surfaces were equilibrated by injecting running buffer over them in three separate pulses. The data collection rate was set to 10 Hz.
The raw sensorgrams of the compound injections were first subjected to reference subtraction (subtracting the signal from flow channel 1 and/or 3 from the signal from channels 2 and/or 4 respectively) and then blank subtraction (subtracting the signal from injecting DMSO controls from the reference subtracted data). The resulting double-referenced sensorgrams were then fitted using a 1:1 binding interaction model using the manufactures software package to extract kinetic- and affinity data. Active compounds have been defined by creating a detectable binding signal at the highest compound concentration ([…]) of 3 RUs. Kinetic- and affinity data on active compounds are only provided for those compounds where the binding signal at the highest compound concentration ([…]) is 50% of the theoretical maximum binding signal for a 1:1 binding interaction (Rmax, typically between 15-20 RUs) in order to enable a proper fitting of the data.

[1] = biological target: GSK3β (Glycogen synthase kinase-3 beta) (Homo sapiens, UniProt P49841); experiment: Assay 6 GSK3β assay (ThermoFisher Z-Lyte FRET); format: biochemical; details: ATP Conc: 10 μM, geometric mean; read-out: Assay 6 (GSK3β FRET-Z-Lyte Cr) GMean IC50
Method in brief: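 Z-Lyte FRET: 0.22-0.92 ng kinase with 2 μM Ser/Thr 09 peptide in HEPES pH 7.5, MgCl2, EGTA, 60 min at room temperature, then 60 min development. Compounds in 1% DMSO, 10-point 3-fold series from 10 μM; sigmoidal dose-response fit.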

Sequence of GSK3β (Glycogen synthase kinase-3 beta) (P49841 whole entry): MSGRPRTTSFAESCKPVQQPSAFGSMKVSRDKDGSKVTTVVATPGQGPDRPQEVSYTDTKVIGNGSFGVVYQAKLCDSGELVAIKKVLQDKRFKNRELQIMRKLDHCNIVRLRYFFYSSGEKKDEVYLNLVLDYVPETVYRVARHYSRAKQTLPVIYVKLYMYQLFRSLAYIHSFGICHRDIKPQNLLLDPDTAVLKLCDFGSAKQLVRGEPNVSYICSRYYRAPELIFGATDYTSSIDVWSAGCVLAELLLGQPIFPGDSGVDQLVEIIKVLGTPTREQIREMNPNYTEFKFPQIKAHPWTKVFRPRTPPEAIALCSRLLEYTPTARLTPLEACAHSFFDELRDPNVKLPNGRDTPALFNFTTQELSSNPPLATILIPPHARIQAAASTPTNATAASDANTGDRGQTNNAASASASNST
Sequence of PCSK9 (Q8NBP7 31-692): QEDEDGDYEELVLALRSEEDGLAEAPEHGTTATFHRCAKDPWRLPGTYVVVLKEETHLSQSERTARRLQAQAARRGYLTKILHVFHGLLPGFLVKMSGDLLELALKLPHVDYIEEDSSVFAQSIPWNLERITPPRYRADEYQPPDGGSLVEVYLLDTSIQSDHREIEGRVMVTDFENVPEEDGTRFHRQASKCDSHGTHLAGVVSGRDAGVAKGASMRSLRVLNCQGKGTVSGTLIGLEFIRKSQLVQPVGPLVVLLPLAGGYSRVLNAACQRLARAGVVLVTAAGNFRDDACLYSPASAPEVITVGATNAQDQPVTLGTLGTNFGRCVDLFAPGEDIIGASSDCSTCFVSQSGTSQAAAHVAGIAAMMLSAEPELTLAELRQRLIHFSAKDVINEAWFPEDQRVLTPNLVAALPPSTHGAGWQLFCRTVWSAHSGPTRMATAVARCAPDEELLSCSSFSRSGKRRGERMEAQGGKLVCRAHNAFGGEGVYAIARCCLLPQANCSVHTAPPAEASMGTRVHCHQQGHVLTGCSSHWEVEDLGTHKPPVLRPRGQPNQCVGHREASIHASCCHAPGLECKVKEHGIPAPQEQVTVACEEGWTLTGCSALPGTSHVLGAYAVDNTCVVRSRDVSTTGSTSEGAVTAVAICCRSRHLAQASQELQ

| Structure (SMILES) | Kd (PCSK9) [nM] | IC50 [1] [nM] |
| --- | --- | --- |
| O=c1ccccn1-c1ccc(N[C@H]2CC[C@H](Nc3ncc(C4CC4)nn3)C2)nc1 [Example 50, 6′-(((1S,3S)-3-((6-Cyclopropyl-1,2,4-triazin-3-yl)amino)cyclopentyl)amino)-2H-[1,3′-bipyridin]-2-one] | 9.8 | > 10000 |
| O=c1c(C(F)(F)F)cccn1-c1ccc(N[C@H]2CC[C@H](Nc3ncc(C4CC4)nn3)C2)nc1 [Example 51, 6′-(((1S,3S)-3-((6-Cyclopropyl-1,2,4-triazin-3-yl)amino)cyclopentyl)amino)-3-(trifluoromethyl)-2H-[1,3′-bipyridin]-2-one] | 0.9 | > 10000 |
| O=c1c(OC(F)(F)F)cccn1-c1ccc(N[C@H]2CC[C@H](Nc3ncc(C4CC4)nn3)C2)nc1 [Example 52, 6′-(((1S,3S)-3-((6-Cyclopropyl-1,2,4-triazin-3-yl)amino)cyclopentyl)amino)-3-(trifluoromethoxy)-2H-[1,3′-bipyridin]-2-one] | 0.7 | > 10000 |
| O=c1c(Cl)cccn1-c1ccc(N[C@H]2CC[C@H](Nc3ncc(C4CC4)nn3)C2)nc1 [Example 55, 3-Chloro-6′-(((1S,3S)-3-((6-cyclopropyl-1,2,4-triazin-3-yl)amino)cyclopentyl)amino)-2H-[1,3′-bipyridin]-2-one] | 0.4 | 1600 |
| N#Cc1ccc(=O)n(-c2ccc(N[C@H]3CC[C@H](Nc4ncc(C5CC5)nn4)C3)nc2)c1 [Example 56, 6′-(((1S,3S)-3-((6-Cyclopropyl-1,2,4-triazin-3-yl)amino)cyclopentyl)amino)-2-oxo-2H-[1,3′-bipyridine]-5-carbonitrile] | 7.4 | > 10000 |
| CN1CC(=O)N(c2ccc(N[C@H]3CC[C@H](Nc4ncc(C5CC5)nn4)C3)nc2)C1=O [Example 57, 3-(6-(((1S,3S)-3-((6-Cyclopropyl-1,2,4-triazin-3-yl)amino)cyclopentyl)amino)pyridin-3-yl)-1-methylimidazolidine-2,4-dione] | 7.5 | > 10000 |
| N#Cc1cccn(-c2ccc(N[C@H]3CC[C@H](Nc4ncc(C5CC5)nn4)C3)nc2)c1=O [Example 58, 6′-(((1S,3S)-3-((6-Cyclopropyl-1,2,4-triazin-3-yl)amino)cyclopentyl)amino)-2-oxo-2H-[1,3′-bipyridine]-3-carbonitrile] | 2.2 | > 10000 |
| CN1C(=O)CN(c2ccc(N[C@H]3CC[C@H](Nc4ncc(C5CC5)nn4)C3)nc2)C1=O [Example 62, 1-(6-(((1S,3S)-3-((6-Cyclopropyl-1,2,4-triazin-3-yl)amino)cyclopentyl)amino)pyridin-3-yl)-3-methylimidazolidine-2,4-dione] | 4.3 | > 10000 |
| Cn1c(=O)n(-c2ccc(N[C@H]3CC[C@H](Nc4ncc(C5CC5)nn4)C3)nc2)c2ncccc21 [Example 63, 3-(6-(((1S,3S)-3-((6-Cyclopropyl-1,2,4-triazin-3-yl)amino)cyclopentyl)amino)pyridin-3-yl)-1-methyl-1,3-dihydro-2H-imidazo[4,5-b]pyridin-2-one] | 1.4 | > 10000 |
| COc1cccn(-c2ccc(N[C@H]3CC[C@H](Nc4ncc(C5CC5)nn4)C3)nc2)c1=O [Example 64, 6′-(((1S,3S)-3-((6-Cyclopropyl-1,2,4-triazin-3-yl)amino)cyclopentyl)amino)-3-methoxy-2H-[1,3′-bipyridin]-2-one] | 0.4 | 385 |
| COc1ccc(=O)n(-c2ccc(N[C@H]3CC[C@H](Nc4ncc(C5CC5)nn4)C3)nc2)c1 [Example 65, 6′-(((1S,3S)-3-((6-Cyclopropyl-1,2,4-triazin-3-yl)amino)cyclopentyl)amino)-5-methoxy-2H-[1,3′-bipyridin]-2-one] | 5.8 | 14 |
| Cc1cccn(-c2ccc(N[C@H]3CC[C@H](Nc4ncc(C5CC5)nn4)C3)nc2)c1=O [Example 66, 6′-(((1S,3S)-3-((6-Cyclopropyl-1,2,4-triazin-3-yl)amino)cyclopentyl)amino)-3-methyl-2H-[1,3′-bipyridin]-2-one] | 1.5 | > 10000 |
| Cc1cnc(N[C@H]2CC[C@H](Nc3ccc(-n4ccccc4=O)cn3)C2)nn1 [Example 67, 6′-(((1S,3S)-3-((6-Methyl-1,2,4-triazin-3-yl)amino)cyclopentyl)amino)-2H-[1,3′-bipyridin]-2-one] | 17 | 2100 |
| C#CCNC(=O)c1cnc(N[C@H]2CC[C@H](Nc3ccc(-n4ccccc4=O)cn3)C2)nn1 [Example 69, 3-(((1S,3S)-3-((2-Oxo-2H-[1,3′-bipyridin]-6′-yl)amino)cyclopentyl)amino)-N-(prop-2-yn-1-yl)-1,2,4-triazine-6-carboxamide] | 12 | > 10000 |
| O=C(NC1COC1)c1cnc(N[C@H]2CC[C@H](Nc3ccc(-n4ccccc4=O)cn3)C2)nn1 [Example 70, N-(Oxetan-3-yl)-3-(((1S,3S)-3-((2-oxo-2H-[1,3′-bipyridin]-6′-yl)amino)cyclopentyl)amino)-1,2,4-triazine-6-carboxamide] | 21 | > 10000 |
| CNC(=O)c1cnc(N[C@H]2CC[C@H](Nc3ccc(-n4ccccc4=O)cn3)C2)nn1 [Example 75, N-Methyl-3-(((1S,3S)-3-((2-oxo-2H-[1,3′-bipyridin]-6′-yl)amino)cyclopentyl)amino)-1,2,4-triazine-6-carboxamide] | 16 | > 10000 |
| O=c1ccc(Cl)cn1-c1ccc(N[C@H]2CC[C@H](Nc3ncc(C4CC4)nn3)C2)nc1 [Example 112, 5-Chloro-6′-(((1S,3S)-3-((6-cyclopropyl-1,2,4-triazin-3-yl)amino)cyclopentyl)amino)-2H-[1,3′-bipyridin]-2-one] | 3.9 | 6400 |
| O=c1ccncn1-c1ccc(N[C@H]2CC[C@H](Nc3ncc(C4CC4)nn3)C2)nc1 [Example 114, 3-(6-(((1S,3S)-3-((6-Cyclopropyl-1,2,4-triazin-3-yl)amino)cyclopentyl)amino)pyridin-3-yl)pyrimidin-4(3H)-one] | 5.3 | > 10000 |
| Cn1c(=O)n(-c2ccc(N[C@H]3CC[C@H](Nc4ncc(C5CC5)nn4)C3)nc2)c2cc(C#N)ccc21 [Example 116, 3-(6-(((1S,3S)-3-((6-Cyclopropyl-1,2,4-triazin-3-yl)amino)cyclopentyl)amino)pyridin-3-yl)-1-methyl-2-oxo-2,3-dihydro-1H-benzo[d]imidazole-5-carbonitrile] | 0.3 | > 10000 |
| Cn1c(=O)n(-c2ccc(N[C@H]3CC[C@H](Nc4ncc(C5CC5)nn4)C3)nc2)c2ccc(C#N)cc21 [Example 117, 1-(6-(((1S,3S)-3-((6-Cyclopropyl-1,2,4-triazin-3-yl)amino)cyclopentyl)amino)pyridin-3-yl)-3-methyl-2-oxo-2,3-dihydro-1H-benzo[d]imidazole-5-carbonitrile] | 0.9 | > 10000 |
| O=c1cccnn1-c1ccc(N[C@H]2CC[C@H](Nc3ncc(C4CC4)nn3)C2)nc1 [Example 118] | 8.5 | > 10000 |
| Cn1c(=O)n(-c2ccc(N[C@H]3CC[C@H](Nc4ncc(C5CC5)nn4)C3)nc2)c2ccc(C(=O)O)cc21 [Example 121, 1-(6-(((1S,3S)-3-((6-Cyclopropyl-1,2,4-triazin-3-yl)amino)cyclopentyl)amino)pyridin-3-yl)-3-methyl-2-oxo-2,3-dihydro-1H-benzo[d]imidazole-5-carboxylic acid] | 1.6 | 5050 |
| Cc1cnc(N[C@H]2CC[C@H](Nc3ccc(-n4cc(C#N)ccc4=O)cn3)C2)nn1 [Example 128, 6′-(((1S,3S)-3-((6-Methyl-1,2,4-triazin-3-yl)amino)cyclopentyl)amino)-2-oxo-2H-[1,3′-bipyridine]-5-carbonitrile] | 30 | > 10000 |
